Our source for the RP-LC retention time values is the METLIN SMRT retention time set (Domingo-Almenara et al. 2019).

Each structure is given as a SMILES string.

The data set in a line: gradient 5% acetonitrile 3 min, to 50% in 2 min, to 85% in 15 min, held 3 min, 100 µL/min. To be noted: column: Zorbax Extend-C18 2.1 x 50 mm; eluents: water / acetonitrile, 0.1% formic acid. A digest of the protocol:
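A Zorbax Extend-C18 column (2.1 × 50 mm, 1.8 μm) run at 100 μL/min with water and acetonitrile, both containing 0.1% formic acid, separated mixtures of ~100 pure standards. The HPLC was coupled to a quadrupole time-of-flight mass spectrometer operated in positive and negative ionization mode, with dead and dwell volumes of 40 μL and 900 μL. Each retention time was taken from a computationally picked adduct peak that was then manually inspected.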
`COc1ccc(OC)c(NC(=O)c2ccc(-n3cnc(NC(=O)C4CC4)c3)cc2)c1`: the RP-LC retention time was 752 s.

`Cc1cccc(NS(=O)(=O)c2cn(C(C)C)c3ncccc23)c1C` gave an RP-LC retention time of 946 s.

In turn, `Cc1csc(-c2ccc(N3CCN(C(=O)c4cc(F)ccc4F)CC3)nc2)n1` showed an RP-LC retention time of 996 s.

In the case of `O=C(Nc1c(F)cccc1F)N1CCc2[nH]cnc2C1c1ccccn1` (stereo not drawn), the RP-LC retention time amounted to 582 s.

`COc1ccc(CCCOC(Cn2ccnc2)c2ccc(OC)cc2)cc1` (stereo not drawn) gave an RP-LC retention time of 785 s.

As for `Cc1ccc(CCNS(=O)(=O)c2ccc3c(c2)CCCC(=O)N3)cc1`, the RP-LC retention time amounted to 789 s.

For the molecule `O=S(=O)(Cc1ccccc1)N1CCC(c2nc(C3CC3)no2)C1` (stereo not drawn), the RP-LC retention time was 875 s.

The molecule `O=C(NCC1CC1)C1CCN(c2nc3ccsc3c(=O)n2Cc2ccc(F)cc2)CC1` yielded an RP-LC retention time of 826 s.

`Cc1cc(-c2nnc(-c3ccccc3)o2)c(C)n1CC(=O)NCc1ccccc1` registered an RP-LC retention time of 903 s.

In turn, `CC1CCCN(CCCNC(=O)CCC(=O)N2CCc3c(c(C(=O)N4CCCCC4)nn3C)C2)C1` (stereo not drawn) came in with an RP-LC retention time of 594 s.

In turn, `O=C(c1cnn(-c2ccc([N+](=O)[O-])cc2)c1C1CCNCC1)N1CCN(c2ccccn2)CC1` registered an RP-LC retention time of 563 s.

For the molecule `CCOC(=O)C1CC(=O)c2cc(OC)c(OC)cc2C1` (stereo not drawn), the RP-LC retention time came to 812 s.

Molecule `Cc1ccccc1Cn1cc(-c2ccncc2)cc1C(=O)NCC1CC1` came in with an RP-LC retention time of 704 s.

`Cc1ccc2cc(CCC(=O)N3CCCN(c4ncccn4)CC3)c(=O)[nH]c2c1` had an RP-LC retention time of 676 s.

For `Cc1cccc(-c2nnc(CC(=O)NC3CCCCC3)o2)c1`, the RP-LC retention time came out at 817 s.

`CC(C)CNC(=O)c1ccn[nH]1`: the RP-LC retention time is 604 s.

Consider `O=S(=O)(c1cccn2c(SCc3cc(F)cc(F)c3)nnc12)N1CCCC1`, for which the RP-LC retention time is 845 s.

`Cc1cccc(NC(=O)N2c3ccccc3NC3=C(C(=O)CCC3)C2c2ccco2)c1C` (stereo not drawn) showed an RP-LC retention time of 813 s.

Molecule `COc1ccc(C2CC(=O)Nc3c(C(=O)O)cn(-c4cccc(F)c4)c32)cc1OC` (stereo not drawn) registered an RP-LC retention time of 728 s.

`CCn1cnc(S(=O)(=O)N2CCC(C(=O)NCC(C)c3ccccc3)CC2)c1` (stereo not drawn): the RP-LC retention time was determined as 732 s.

Molecule `CCC(=O)N(C)CCc1noc(-c2ccc(C(=O)NCCOC)cc2)n1` gave an RP-LC retention time of 644 s.

Turning to `O=C(NCCc1ccc(Cl)cc1)C1CCCN(c2ncnc3c2oc2ccccc23)C1` (stereo not drawn), the RP-LC retention time came out at 855 s.

Regarding `CCC(C(=O)NCCCN1CCCC1=O)n1c2ccccc2c2cnn(C)c(=O)c21` (stereo not drawn), the RP-LC retention time is 692 s.

In turn, `CCOC(=O)c1sc(NC(=O)Cn2c(=O)oc3ccccc32)nc1C` came in with an RP-LC retention time of 778 s.

Take `O=S(=O)(CCOc1ccccc1)N1CCN(c2ccccc2F)CC1`: the RP-LC retention time was 1010 s.

On to `CC1CCC(C(=O)Nc2ccc(-c3nnc4n3CCCC4)cc2)CC1` (stereo not drawn), for which the RP-LC retention time worked out at 734 s.

For the molecule `CC(C)c1ccc(-n2nc(N3CCN(C(=O)c4cc5ccccc5[nH]4)CC3)ccc2=O)cc1`, the RP-LC retention time worked out at 998 s.

For `COCCN1C(=O)[C@H]2CN(Cc3ccccc3OC(F)(F)F)C[C@H]2C1=O`, the RP-LC retention time is 743 s.

Molecule `COc1ccccc1NC(=O)N1CCCC1c1nc(-c2cccc(C)c2)no1` (stereo not drawn) showed an RP-LC retention time of 1080 s.

In turn, `O=C(Cn1cccc1-c1nc(-c2ccccc2)no1)N1CCCc2ccccc21` had an RP-LC retention time of 1210 s.

As for `COC(=O)CNC(=O)C1COc2ccc(NC(=O)C(C)C)cc2C1` (stereo not drawn), the RP-LC retention time came to 658 s.

Consider `CC1(c2nc(-c3ccccc3)no2)CCCN(Cc2ncon2)C1` (stereo not drawn), for which the RP-LC retention time came out at 754 s.

In turn, `CC(C)NC(=O)C1(c2ccc(NS(C)(=O)=O)cc2)CCCCC1` had an RP-LC retention time of 782 s.
